biological target: T1, Cannabinoid-1 receptor (CB1R) (Rattus norvegicus, UniProt P20272); experiment: Cannabinoid-1 receptor (CB1R) binding affinity assay ([3H]CP-55940, rat CB-1 receptor binding protocol); conditions: IC50(nM), brain tissue of SD rats, [3H]CP-55940, 30° C. 60 min
T1 construct: The tissue obtained from the brain of SD rats was homogenized; from tissue; host or cells: brain of SD rats (membrane pellet of the homogenate)
T1 sequence (P20272 whole entry): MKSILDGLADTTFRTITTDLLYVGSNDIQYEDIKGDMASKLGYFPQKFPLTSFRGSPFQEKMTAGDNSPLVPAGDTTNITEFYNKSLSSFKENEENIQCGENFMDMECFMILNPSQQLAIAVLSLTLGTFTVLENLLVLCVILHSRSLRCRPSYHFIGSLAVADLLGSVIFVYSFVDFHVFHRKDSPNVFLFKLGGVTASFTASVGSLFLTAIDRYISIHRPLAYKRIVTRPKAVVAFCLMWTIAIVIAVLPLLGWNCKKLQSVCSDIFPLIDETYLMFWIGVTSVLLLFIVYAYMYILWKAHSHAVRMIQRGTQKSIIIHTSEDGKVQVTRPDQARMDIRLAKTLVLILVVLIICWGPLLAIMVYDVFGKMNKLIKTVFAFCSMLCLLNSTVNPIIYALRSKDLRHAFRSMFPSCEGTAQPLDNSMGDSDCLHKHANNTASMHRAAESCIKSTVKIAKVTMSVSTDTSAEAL

Compound	IC50 [nM]
CC(F)c1c(-c2nnc(C(C)(C)C)s2)nn(-c2ccc(Cl)cc2Cl)c1-c1ccc(Br)cc1 (stereo not shown) [Example 530, 2-(5-(4-bromophenyl)-1-(2,4-dichlorophenyl)-4-(1-fluoroethyl)-1H-pyrazol-3-yl)-5-tert-butyl-1,3,4-thiadiazole]	11.8
COC(=O)NC(C)c1c(-c2nnc(C(C)(C)C)s2)nn(-c2ccc(Cl)cc2Cl)c1-c1ccc(Br)cc1 (stereo not shown) [Example 532, Methyl 1-(5-(4-bromophenyl)-3-(5-tert-butyl-1,3,4-thiadiazol-2-yl)-1-(2,4-dichlorophenyl)-1H-pyrazol-4-yl)ethylcarbamate]	8.75

same assay, conditions: brain tissue of SD rats, [3H]CP-55940, 30° C. 60 min; read-out: IC50

Compound	IC50 [nM]
Clc1ccc(-c2c(Cn3cncn3)c(-c3nnc(C4(c5ccc(Cl)cc5Cl)CC4)s3)nn2-c2ccc(Cl)cc2Cl)cc1 [Example 510, 2-(4-((1H-1,2,4-triazol-1-yl)methyl)-5-(4-chlorophenyl)-1-(2,4-dichlorophenyl)-1H-pyrazol-3-yl)-5-(1-(2,4-dichlorophenyl)cyclopropyl)-1,3,4-thiadiazole]	11.3
FC(F)(F)C1(c2nnc(-c3nn(-c4ccc(Cl)cc4Cl)c(-c4ccc(Cl)cc4)c3Cn3cncn3)s2)CC1 [Example 511, 2-(4-((1H-1,2,4-triazol-1-yl)methyl)-5-(4-chlorophenyl)-1-(2,4-dichlorophenyl)-1H-pyrazol-3-yl)-5-(1-(trifluoromethyl)cyclopropyl)-1,3,4-thiadiazole]	2.29
FC(F)(F)C1(c2nnc(-c3nn(-c4ccc(Cl)cc4Cl)c(-c4ccc(Cl)cc4)c3Cn3cncn3)s2)CCC1 [Example 512, 2-(4-((1H-1,2,4-triazol-1-yl)methyl)-5-(4-chlorophenyl)-1-(2,4-dichlorophenyl)-1H-pyrazol-3-yl)-5-(1-(trifluoromethyl)cyclobutyl)-1,3,4-thiadiazole]	2.89
Clc1ccc(-c2c(Cn3cncn3)c(-c3nnc(C4(c5ccc(Cl)cc5)CCC4)s3)nn2-c2ccc(Cl)cc2Cl)cc1 [Example 513, 2-(4-((1H-1,2,4-triazol-1-yl)methyl)-5-(4-chlorophenyl)-1-(2,4-dichlorophenyl)-1H-pyrazol-3-yl)-5-(1-(4-chlorophenyl)cyclobutyl)-1,3,4-thiadiazole]	2.34
Clc1ccc(-c2c(Cn3cncn3)c(-c3nnc(C4(c5ccccc5)CCCC4)s3)nn2-c2ccc(Cl)cc2Cl)cc1 [Example 514, 2-(4-((1H-1,2,4-triazol-1-yl)methyl)-5-(4-chlorophenyl)-1-(2,4-dichlorophenyl)-1H-pyrazol-3-yl)-5-(1-phenylcyclopentyl)-1,3,4-thiadiazole]	2.88
Clc1ccc(-c2c(Cn3cncn3)c(-c3nnc(C4(c5ccc(Cl)cc5)CCCC4)s3)nn2-c2ccc(Cl)cc2Cl)cc1 [Example 515, 2-(4-((1H-1,2,4-triazol-1-yl)methyl)-5-(4-chlorophenyl)-1-(2,4-dichlorophenyl)-1H-pyrazol-3-yl)-5-(1-(4-chlorophenyl)cyclopentyl)-1,3,4-thiadiazole]	1.91
CC(=O)OCc1c(-c2nnc(C(C)(C)C)s2)nn(-c2ccc(Cl)cc2Cl)c1-c1ccc(Br)cc1 [Example 520, (5-(4-bromophenyl)-3-(5-tert-butyl-1,3,4-thiadiazol-2-yl)-1-(2,4-dichlorophenyl)-1H-pyrazol-4-yl)methyl acetate]	9.01
CC(=O)OCc1c(-c2nnc(C(C)(C)C)s2)nn(-c2ccc(Cl)cc2Cl)c1-c1ccc(Cl)cc1 [Example 521, (3-(5-tert-butyl-1,3,4-thiadiazol-2-yl)-5-(4-chlorophenyl)-1-(2,4-dichlorophenyl)-1H-pyrazol-4-yl)methyl acetate]	16.7
CC(C)(C)c1nnc(-c2nn(-c3ccc(Cl)cc3Cl)c(-c3ccc(Br)cc3)c2CO)s1 [Example 522, (5-(4-bromophenyl)-3-(5-tert-butyl-1,3,4-thiadiazol-2-yl)-1-(2,4-dichlorophenyl)-1H-pyrazol-4-yl)methanol]	4.61
CC(C)(C)c1nnc(-c2nn(-c3ccc(Cl)cc3Cl)c(-c3ccc(Cl)cc3)c2CO)s1 [Example 523, (3-(5-tert-butyl-1,3,4-thiadiazol-2-yl)-5-(4-chlorophenyl)-1-(2,4-dichlorophenyl)-1H-pyrazol-4-yl)methanol]	6.88
COCc1c(-c2nnc(C(C)(C)C)s2)nn(-c2ccc(Cl)cc2Cl)c1-c1ccc(Br)cc1 [Example 524, 2-(5-(4-bromophenyl)-1-(2,4-dichlorophenyl)-4-(methoxymethyl)-1H-pyrazol-3-yl)-5-tert-butyl-1,3,4-thiadiazole]	8.31
CC(C)(C)c1nnc(-c2nn(-c3ccc(Cl)cc3Cl)c(-c3ccc(Br)cc3)c2CF)s1 [Example 525, 2-(5-(4-bromophenyl)-1-(2,4-dichlorophenyl)-4-(fluoromethyl)-1H-pyrazol-3-yl)-5-tert-butyl-1,3,4-thiadiazole]	8.93
CC(C)(C)c1nnc(-c2nn(-c3ccc(Cl)cc3Cl)c(-c3ccc(Br)cc3)c2COc2ccc(C(F)(F)F)cn2)s1 [Example 526, 2-(5-(4-bromophenyl)-1-(2,4-dichlorophenyl)-4-((5-(trifluoromethyl)pyridin-2-yloxy)methyl)-1H-pyrazol-3-yl)-5-tert-butyl-1,3,4-thiadiazole]	31.3
CC(C)(C)c1nnc(-c2nn(-c3ccc(Cl)cc3Cl)c(-c3ccc(Br)cc3)c2C=O)s1 [Example 527, 5-(4-bromophenyl)-3-(5-tert-butyl-1,3,4-thiadiazol-2-yl)-1-(2,4-dichlorophenyl)-1H-pyrazole-4-carbaldehyde]	10.1
CC(O)c1c(-c2nnc(C(C)(C)C)s2)nn(-c2ccc(Cl)cc2Cl)c1-c1ccc(Br)cc1 (stereo not shown) [Example 528, 1-(5-(4-bromophenyl)-3-(5-tert-butyl-1,3,4-thiadiazol-2-yl)-1-(2,4-dichlorophenyl)-1H-pyrazol-4-yl)ethanol]	6.47
C=Cc1c(-c2nnc(C(C)(C)C)s2)nn(-c2ccc(Cl)cc2Cl)c1-c1ccc(Br)cc1 [Example 531, 2-(5-(4-bromophenyl)-1-(2,4-dichlorophenyl)-4-vinyl-1H-pyrazol-3-yl)-5-tert-butyl-1,3,4-thiadiazole]	20.6
CC(=O)c1c(-c2nnc(C(C)(C)C)s2)nn(-c2ccc(Cl)cc2Cl)c1-c1ccc(Br)cc1 [Example 533, 1-(5-(4-bromophenyl)-3-(5-tert-butyl-1,3,4-thiadiazol-2-yl)-1-(2,4-dichlorophenyl)-1H-pyrazol-4-yl)ethanone]	6.03
C=C(C)c1c(-c2nnc(C(C)(C)C)s2)nn(-c2ccc(Cl)cc2Cl)c1-c1ccc(Br)cc1 [Example 535, 2-(5-(4-bromophenyl)-1-(2,4-dichlorophenyl)-4-(prop-1-en-2-yl)-1H-pyrazol-3-yl)-5-tert-butyl-1,3,4-thiadiazole]	12
Clc1ccc(-c2c(Cl)c(-c3nnc(C4CCC4)s3)nn2-c2ccc(Cl)cc2Cl)cc1 [Example 536, 2-(4-chloro-5-(4-chlorophenyl)-1-(2,4-dichlorophenyl)-1H-pyrazol-3-yl)-5-cyclobutyl-1,3,4-thiadiazole]	199
CCC(C)(C)c1nnc(-c2nn(-c3ccc(Cl)cc3Cl)c(-c3ccc(Cl)cc3)c2Cl)s1 [Example 537, 2-(4-chloro-5-(4-chlorophenyl)-1-(2,4-dichlorophenyl)-1H-pyrazol-3-yl)-5-tert-pentyl-1,3,4-thiadiazole]	127
Clc1ccc(-c2c(Cl)c(-c3nnc(C4CCCCC4)s3)nn2-c2ccc(Cl)cc2Cl)cc1 [Example 538, 2-(4-chloro-5-(4-chlorophenyl)-1-(2,4-dichlorophenyl)-1H-pyrazol-3-yl)-5-cyclohexyl-1,3,4-thiadiazole]	653
CCC(C)c1nnc(-c2nn(-c3ccc(Cl)cc3Cl)c(-c3ccc(Cl)cc3)c2Cl)s1 (stereo not shown) [Example 539, 2-sec-butyl-5-(4-chloro-5-(4-chlorophenyl)-1-(2,4-dichlorophenyl)-1H-pyrazol-3-yl)-1,3,4-thiadiazole]	102
CC(C)(C)c1nnc(-c2nn(-c3ccc(Cl)cc3Cl)c(-c3ccc(Cl)cc3)c2Cl)s1 [Example 540, 2-tert-butyl-5-(4-chloro-5-(4-chlorophenyl)-1-(2,4-dichlorophenyl)-1H-pyrazol-3-yl)-1,3,4-thiadiazole]	98.1
CC(C)(C)c1nnc(-c2nn(-c3ccc(Cl)cc3Cl)c(-c3ccc(Cl)cc3)c2Br)s1 [Example 541, 2-(4-bromo-5-(4-chlorophenyl)-1-(2,4-dichlorophenyl)-1H-pyrazol-3-yl)-5-tert-butyl-1,3,4-thiadiazole]	23.1
CCC(C)c1nnc(-c2nn(-c3ccc(Cl)cc3Cl)c(-c3ccc(Cl)cc3)c2Br)s1 (stereo not shown) [Example 542, 2-(4-bromo-5-(4-chlorophenyl)-1-(2,4-dichlorophenyl)-1H-pyrazol-3-yl)-5-sec-butyl-1,3,4-thiadiazole]	51.9
Clc1ccc(-c2c(Br)c(-c3nnc(C4CCC4)s3)nn2-c2ccc(Cl)cc2Cl)cc1 [Example 543, 2-(4-bromo-5-(4-chlorophenyl)-1-(2,4-dichlorophenyl)-1H-pyrazol-3-yl)-5-cyclobutyl-1,3,4-thiadiazole]	70.3
Clc1ccc(-c2c(Br)c(-c3nnc(C4CCCCC4)s3)nn2-c2ccc(Cl)cc2Cl)cc1 [Example 544, 2-(4-bromo-5-(4-chlorophenyl)-1-(2,4-dichlorophenyl)-1H-pyrazol-3-yl)-5-cyclohexyl-1,3,4-thiadiazole]	91.2
CCC(C)(C)c1nnc(-c2nn(-c3ccc(Cl)cc3Cl)c(-c3ccc(Cl)cc3)c2Br)s1 [Example 545, 2-(4-bromo-5-(4-chlorophenyl)-1-(2,4-dichlorophenyl)-1H-pyrazol-3-yl)-5-tert-pentyl-1,3,4-thiadiazole]	23.3
CC(C)(c1ccc(Cl)cc1)c1nnc(-c2nn(-c3ccc(Cl)cc3Cl)c(-c3ccc(Cl)cc3)c2Br)s1 [Example 546, 2-(4-bromo-5-(4-chlorophenyl)-1-(2,4-dichlorophenyl)-1H-pyrazol-3-yl)-5-(2-(4-chlorophenyl)propan-2-yl)-1,3,4-thiadiazole]	29.5
